This note sets out measurements from patent US11241475B2, “Preventive and/or therapeutic agent for osteogenesis imperfecta and other diseases” (Pharma Foods International Co., Ltd., priority 2016, dated 2022).

The test system of data set [1] is male Crlj:WI rats. Kind of data set: Calcification rate and morphometry in secondary cancellous bone, seven days (Example 6). The class given is in vivo. The following applies: peptide 1, 10 or 100 mg/kg/day oral, hGH 500 μg/kg/day subcutaneous, versus control group, FIG. 18. As to the method: (§1) The synthetic peptide No. 1 or water for injection (control) was administered to male Crlj:WI rats at the age of four weeks by oral gavage using a gastric tube once a day for seven days (n=10 in each group). The dosage of the synthetic peptide was 1, 10 or 100 mg/kg/day. As a positive control, human growth hormone (hGH) (Norditropin, Japan Standard Commodity Classification Number: 872412) was subcutaneously administered at 500 μg/kg/day once a day for seven days. As fluorescent labels for the bone formation site, tetracycline (20 mg/kg) was subcutaneously administered on day 4 after the administration of the peptide or controls, and then calcein (10 mg/kg) was subcutaneously administered on day 6 after the administration of the peptide or controls. After the administration of the sample on day 7, the rats were kept under fasting conditions. […] Undecalcified specimens of the proximal tibia were prepared and photographed under a fluorescent microscope (BX-53, Olympus Corporation), and the bone morphology was measured using a morphometry system (Histometry RT digitizer, System Supply Co., Ltd.). The daily calcification rate (mineral apposition rate) was determined by measuring the distance between the tetracycline and calcein labels in the secondary cancellous bones and dividing the distance by the time interval between the administrations of the two fluorescent labels (two days).

The test system of data set [2] is male Crlj:WI rats. Kind of data set: Bone growth-promoting effect on rats in the growth phase, seven days (Example 3). The class given is in vivo. The following applies: hGH 500 μg/kg/day subcutaneous, versus control group. As to the method: as §1, with “longitudinal growth” for “daily calcification”, “(Lo.G.R.) of the growth plate per day” for “(mineral apposition rate)”, “labels” for “labels in the secondary cancellous bones”

Data set [3] in a line: Effect on body weight (Example 7). The class given is in vivo. The conditions noted are these: rats, days 1, 3, 5 and 7; peptide 1, 10 or 100 mg/kg/day oral, hGH 500 μg/kg/day subcutaneous; FIG. 24. As to the method: The synthetic peptide No. 1 or water for injection (control) was administered to male Crlj:WI rats at the age of four weeks by oral gavage using a gastric tube once a day for seven days (n=10 in each group). The dosage of the synthetic peptide was 1, 10 or 100 mg/kg/day. As a positive control, human growth hormone (hGH) (Norditropin, Japan Standard Commodity Classification Number: 872412) was subcutaneously administered at 500 μg/kg/day once a day for seven days. The body weight was measured on days 1, 3, 5 and 7 of administration.

Data set [4] has as its system male Crlj:WI rats. The data set can be described thus: Osteogenesis-promoting effect on growth plate and secondary cancellous bone, 21 days (Example 5). The following applies: peptide 100 mg/kg/day oral, hGH 500 μg/kg/day subcutaneous, versus control group, FIG. 14. The class given is in vivo. As to the method:
The synthetic peptide No. 1 or water for injection (control) was administered to male Crlj:WI rats at the age of four weeks by oral gavage using a gastric tube once a day for 21 days. The dosage of the synthetic peptide was 100 mg/kg/day. As a positive control, human growth hormone (hGH) was subcutaneously administered at 500 μg/kg/day once a day for 21 days. As fluorescent labels for the bone formation site, tetracycline (20 mg/kg) was subcutaneously administered on day 18 after the administration of the peptide or controls, and then calcein (10 mg/kg) was subcutaneously administered on day 20 after the administration of the peptide or controls. After the administration of the sample on day 21, the rats were kept under fasting conditions. […] Undecalcified specimens of the proximal tibia were prepared and photographed under a fluorescent microscope (BX-53, Olympus Corporation), and the bone morphology was measured using a morphometry system (Histometry RT digitizer, System Supply Co., Ltd.) and an analysis software (CSS-840 cancellous bone morphometry version, System Supply Co., Ltd.). The longitudinal growth rate (Lo.G.R.) of the epiphyseal plate per day was determined by measuring the distance between the tetracycline and calcein labels and dividing the distance by the time interval between the administrations of the two fluorescent labels (two days).

Data set [5] is described as follows: Digestion test using artificial gastric juice (Example 11). The class given is in vitro ADME. The following applies: 10 mg in 1 mL, pepsin, pH 3.0, 37° C., 60 and 120 minutes, HPLC; FIG. 35. As to the method:
A test using artificial gastric juice was performed on the synthetic peptide No. 1. Ten milligrams of the synthetic peptide No. 1 was dissolved in 1 mL of artificial gastric juice (0.2% NaCl, 0.32% pepsin, 2.4% diluted hydrochloric acid, adjusted to pH 3.0), and the mixture was allowed to react under shaking at 37° C. Samples were collected before the reaction and 60 and 120 minutes after the reaction, and subjected to HPLC [column: ODS column (size: diameter 46 mm×500 mm, SHIMADZU); mobile phase: (A) 0.05% TFA, (B) 90% acetonitrile/0.05% TFA; gradient: 2% B (0 min), 20% B (50 min), 100% B (50.1 min), 100% B (55 min); detection: UV 215 nm] to examine whether the synthetic peptide No. 1 was decomposed by the gastric juice (resistance to the gastric juice).

Data set [6] can be described thus: Digestion test using artificial intestinal juice (Example 11). The class given is in vitro ADME. The following applies: 10 mg in 1 mL, pancreatin, pH 6.8, 37° C., 120 minutes and overnight, HPLC; FIG. 36. As to the method:
Ten milligrams of the synthetic peptide No. 1 was dissolved in 1 mL of artificial intestinal juice (0.34% KH2PO4, 0.36% Na2HPO4, 1% pancreatin, adjusted to pH 6.8), and the mixture was allowed to react under shaking at 37° C. Samples were collected before the reaction, 120 minutes after the reaction and after overnight reaction, and subjected to HPLC [column: ODS column (size: diameter 46 mm×500 mm, SHIMADZU); mobile phase: (A) 0.05% TFA, (B) 90% acetonitrile/0.05% TFA; gradient: 2% B (0 min), 20% B (50 min), 100% B (50.1 min), 100% B (55 min); detection: UV 215 nm] to examine whether the synthetic peptide No. 1 was decomposed by the intestinal juice (resistance to the intestinal juice).

No end group written: not given here.

As to “hGH: human growth hormone (hGH) (Norditropin), positive control, subcutaneously administered”, the “calcification rate (mineral apposition rate) in the secondary cancellous bone” value in data set [1] was “significant increase”. The “area of the hypertrophic cartilage layer” value in data set [2] (peptide 10 mg/kg/day oral, FIG. 9) is listed as “significantly larger”. In addition, the “longitudinal growth rate (Lo.G.R.) of the growth plate per day” value in data set [2] (peptide 1, 10 or 100 mg/kg/day oral, FIG. 8) is given as “significant promotion of bone growth”. For the same substance, the “change in the body weight” value in data set [3] was “No significant change”. Moreover, in data set [4], the “longitudinal growth rate (Lo.G.R.) of the epiphyseal plate per day” value is listed as “significant promotion of bone growth”.

In the case of “VNPESEEE [synthetic peptide No. 1, Val-Asn-Pro-Glu-Ser-Glu-Glu-Glu]”, the “decomposition by artificial gastric juice (resistance to the gastric juice)” value in data set [5] was “not decomposed”. The “decomposition by artificial intestinal juice (resistance to the intestinal juice)” value in data set [6] is “totally decomposed into a peptide having the sequence of the synthetic peptide No. 2”. Also, the “change in the body weight” value in data set [3] is recorded as “No significant change”.
